Measurements: patent US20020022215A1 (priority 2000, published 2002)
Where two headings read alike, the source gives them in different places.

Experiments:
HAV = type: cell-based, hepatitis A virus, strain HM175; conditions: for reduction of HAV: in plasma
E. coli B [1] = type: cell-based, Escherichia coli B (ATCC 11303); conditions: for log10 reduction of E. coli B / percentage reduction of E. coli B: 10^−3 M in NaCl, 365 nm UV; for log10 reduction of Escherichia coli B / percentage reduction of Escherichia coli B: 365 nm light
Escherichia coli B = experiment: Initial studies: inactivation of Escherichia coli B with and without aeration of the medium; type: cell-based
Excerpt: Light alone, or porphyrin alone, were ineffective.

Klebsiella oxytoca = experiment: Inactivation of Klebsiella oxytoca in human plasma; type: cell-based; conditions: 10^−5 M with light (FIG. 7)
coliphage MS2 = type: cell-based, coliphage MS2 (ATCC 15597-B1); conditions: for log10 reduction of MS2 / reduction of MS2: in NaCl, UV light
poliovirus (PV1) = type: cell-based, Poliovirus-1
[2] = system: Chinese Hamster Ovary (CHO) cells
E. coli B [3] = experiment: Inactivation of E. coli B on porphyrin-containing cellulose acetate membranes; type: cell-based, Escherichia coli B (ATCC 11303); conditions: cellulose acetate membranes containing the porphyrin, UV light, 100 minutes
Description: Cultures of E. coli B (ATCC 11303) were grown the day before an experiment to log phase growth in 50 milliliters of tryptic soy broth (TSB) followed by centrifugation at 3000 rpm for 10 minutes and at 4° C. The supernatant was drawn off and discarded and pellets were resuspended in 10 mL of 0.2 M phosphate buffered saline (PBS; pH 7.2). The centrifugation-resuspension process was repeated for a total of three times. Preparations were kept at 4° C. until ready for use. Bacterial cultures were assayed on tryptic soy agar (TSA) by spot or spread plating duplicate 0.04 to 0.1 ml volumes of the serially diluted preparation onto the agar plates, and was enumerated via colony counts after incubation overnight at 44.5° C. Results are expressed as cfu/ml. On the day of an experiment, the stock preparation was serially diluted in PBS to a target concentration of about […] E. coli cells per milliliter for use on membranes and in solution, respectively. Duplicate 0.1 ml volumes of the experimental samples were spread plated on TSA and incubated overnight at 44.5° C.
When cellulose acetate membranes containing protoporphyrin IX (disodium salt) were exposed to UV light, E. coli B was inactivated by 0.3 log10 cfu/ml in 100 minutes and by about 1.0 log10 (90%) in 300 minutes (FIG. 8).

[4] = 10^−4 M, another experiment (controls 193)
[5] = 10^−4 M, six days, first experiment (controls 271)
[6] = 10^−5 M, another experiment (controls 193)
[7] = 10^−5 M, six days, first experiment (controls 271)

## C[n+]1ccc(-c2c3nc(c(-c4cc[n+](C)cc4)c4ccc([nH]4)c(-c4cc[n+](C)cc4)c4nc(c(-c5cc[n+](C)cc5)c5ccc2[nH]5)C=C4)C=C3)cc1.Cc1ccc(S(=O)(=O)[O-])cc1.Cc1ccc(S(=O)(=O)[O-])cc1.Cc1ccc(S(=O)(=O)[O-])cc1.Cc1ccc(S(=O)(=O)[O-])cc1 [TMPyP4, tetrakis (N-methyl-4-pyridiniumyl) porphine tetratosylate]
HAV; 10^−5M in water, light, 30 min (FIG. 5)
  inactivation of HAV in water: greater than 3 logs
E. coli B [1]; 1 minute
  log10 reduction of E. coli B: 1.7 log10
  percentage reduction of E. coli B: 98%
E. coli B [1]; 10 minutes
  log10 reduction of E. coli B: 2.4 log10
  percentage reduction of E. coli B: 99.6%
E. coli B [1]; 30 minutes
  log10 reduction of E. coli B: 3.7 log10
  percentage reduction of E. coli B: 99.98%
E. coli B [1]; 90 minutes
  log10 reduction of E. coli B: > 5.9 log10
E. coli B [1]; 10^−3 M in PBS, dark
  E. coli B incubated in the dark, infectivity assay: not detected
E. coli B [1]; 10^−5 M in PBS, with or without light, one minute (FIG. 9)
  infectivity of E. coli B after treatment: decreased below detection limits
Escherichia coli B; 30 minutes, medium aerated by sparging with air
  inactivation of Escherichia coli B: over 3.7 log
Escherichia coli B; medium not aerated
  inactivation of Escherichia coli B, medium not aerated: No inactivation
Escherichia coli B; porphyrin alone, without light
  effect of porphyrin alone on Escherichia coli B: ineffective
Klebsiella oxytoca
  inactivation of Klebsiella oxytoca: over 5 log10
Coliphage MS2; 10^−3 M in PBS, dark
  MS2 incubated in the dark, infectivity assay: not detected
Coliphage MS2; 1 minute
  log10 reduction of MS2: 0.3 log10
  reduction of MS2: 50%
Coliphage MS2; 10 minutes
  log10 reduction of MS2: 0.9 log10
  reduction of MS2: 87%
Coliphage MS2; 60 minutes
  log10 reduction of MS2: > 3.8 log10
  reduction of MS2: > 99.98%
Coliphage MS2; no light (FIG. 3)
  MS2 in the absence of light: unaffected
Coliphage MS2; plasma, no LWUV
  MS2 in porphyrin/plasma mixture not exposed to LWUV: not detectable
Poliovirus (PV1)
  poliovirus (PV1) in the absence of light: unaffected
[2]; [4]
  CHO colony count: no colony forming units detected
[2]; [5]
  CHO colony count: no cells could be detected
[2]; [6]
  CHO colony count: 183 cfu/well
[2]; [7]
  CHO colony count: 322 cfu/well

## Cl.Cl.O=S(=O)(O)c1ccc(-c2c3nc(c(-c4ccc(S(=O)(=O)O)cc4)c4ccc([nH]4)c(-c4ccc(S(=O)(=O)O)cc4)c4nc(c(-c5ccc(S(=O)(=O)O)cc5)c5ccc2[nH]5)C=C4)C=C3)cc1 [TPPS4, meso-tetra-(4-sulfonatophenyl)-porphine dihydrochloride]
HAV
  inactivation of HAV in plasma: about 1 log
  inactivation of HAV in water: 2 logs
  reduction of HAV in plasma: 2 logs
E. coli B [1]; 10^−5 M in PBS, 1 minute
  log10 reduction of Escherichia coli B: 0.6 log10
  percentage reduction of Escherichia coli B: 75%
E. coli B [1]; 10^−5 M in PBS, 10 minutes
  log10 reduction of Escherichia coli B: 1.6 log10
  percentage reduction of Escherichia coli B: 97%
E. coli B [1]; 10^−5 M in PBS, 30 minutes
  log10 reduction of Escherichia coli B: > 5.5 log10
E. coli B [1]; porphyrin without long-wavelength UV light
  loss of infectivity of E. coli B in the absence of long-wavelength UV light: did not result in any loss of infectivity
Coliphage MS2
  MS2 in the absence of light: unaffected
  coliphage MS2 after 10 minutes of contact: unaffected
  inactivation of coliphage MS2 in plasma: about 3 logs
  initial infectious test microbes remaining at the end of each experimental period: approximately 100%
  loss of infectivity without UV light: no loss of infectivity
[2]; [4]
  CHO colony count: 189 cfu/well
[2]; [5]
  CHO colony count: 320 cfu/well
[2]; [7]
  CHO colony count: 310 cfu/well

## CCCC[n+]1ccc(-c2c3nc(c(-c4cc[n+](CCCC)cc4)c4ccc([nH]4)c(-c4cc[n+](CCCC)cc4)c4nc(c(-c5cc[n+](CCCC)cc5)c5ccc2[nH]5)C=C4)C=C3)cc1 [TPyPH2(N-Bu), tetrakis (4-n-butylpyridiniumyl) porphyrin]
HAV; 1 minute (first of five values)
  reduction of HAV: 0.1 log10
HAV; 10 minutes (second of five values)
  reduction of HAV: 1.5 log10
HAV; 30 minutes (third of five values)
  reduction of HAV: 1.6 log10
HAV; 90 minutes (last of five values)
  reduction of HAV: > 3.3 log10
HAV; fourth of five values, its time is not given
  reduction of HAV: 2.7 log10
[2]; [4]
  CHO colony count: no colony forming units detected
[2]; [6]
  CHO colony count: 186 cfu/well

## C=CC1=C(C)c2cc3[nH]c(cc4nc(cc5[nH]c(cc1n2)c(C)c5CCC(=O)O)C(CCC(=O)O)=C4C)c(C)c3C=C [protoporphyrin IX]
E. coli B [3]
  inactivation of E. coli B: 0.3 log10 cfu/ml
